COC(=O)Nc1nc2ccc(Sc3ccccc3)cc2[nH]1
solubility (mole fraction)
Conditions	in 1,4-dioxane	in acetone	in acetonitrile	in ethanol	in ethyl acetate	in isopropanol	in methanol	in n-butanol	in n-propanol
273.15 K	–	0.000154	1.31e-05	4.24e-05	0.000266	2.01e-05	3.69e-05	7.43e-05	5.94e-05
278.15 K	–	0.000167	1.53e-05	4.62e-05	0.000308	2.39e-05	3.99e-05	8.03e-05	6.58e-05
283.15 K	–	0.00018	1.79e-05	5.02e-05	0.000361	2.8e-05	4.28e-05	8.71e-05	7.33e-05
288.15 K	0.0011	0.000194	2.06e-05	5.44e-05	0.000415	3.24e-05	4.57e-05	9.47e-05	8.16e-05
293.15 K	0.00127	0.000209	2.36e-05	5.92e-05	0.000468	3.65e-05	4.86e-05	0.000102	8.97e-05
298.15 K	0.00145	0.000225	2.68e-05	6.41e-05	0.000533	4.12e-05	5.14e-05	0.000111	9.97e-05
303.15 K	0.00166	0.000241	3.06e-05	6.99e-05	0.000601	4.62e-05	5.54e-05	0.00012	0.000111
308.15 K	0.00189	0.00026	3.47e-05	7.62e-05	0.000684	5.2e-05	5.94e-05	0.000132	0.000123
313.15 K	0.00214	0.00028	3.99e-05	8.36e-05	0.000768	5.82e-05	6.33e-05	0.000143	0.000137
